According to patent publication US9981959B2, “Thiazolyl and oxazolyl urea, thiourea, guanidine and cyanoguanidine compounds as TrkA kinase inhibitors” (Array BioPharma Inc., priority 2012, dated 2018):

Legend:
Assay in all cases: KinaseProfiler off-target kinase profiling
Format in all cases: biochemical
Settings in all cases: 10 μM, ATP near Km
GSK3beta = target: T1, GSK3beta (Homo sapiens, UniProt P49841)
T1 construct: purchased Millipore, Inc. (KinaseProfiler service)
Procedure: (§1) A representative compound of the invention (Example 2) was tested for off-target kinase activity at a concentration of 10 μM by Millipore, Inc. in their KinaseProfiler™ service against all the kinases available in their full kinase panel. The compound was run in duplicate at a concentration of ATP near the Km for each individual kinase according to Millipore's specifications. The results are shown in Table B. Data are reported as percent of control (POC) and are the average of the two replicates.

ErbB4 = target: T2, ErbB4 (Homo sapiens, UniProt Q15303)
T2 construct: purchased Millipore, Inc. (KinaseProfiler service)
Procedure: as §1

DAPK2 = target: T3, DAPK2 (Homo sapiens, UniProt Q9UIK4)
T3 construct: purchased Millipore, Inc. (KinaseProfiler service)
T3 sequence (Q9UIK4 whole entry): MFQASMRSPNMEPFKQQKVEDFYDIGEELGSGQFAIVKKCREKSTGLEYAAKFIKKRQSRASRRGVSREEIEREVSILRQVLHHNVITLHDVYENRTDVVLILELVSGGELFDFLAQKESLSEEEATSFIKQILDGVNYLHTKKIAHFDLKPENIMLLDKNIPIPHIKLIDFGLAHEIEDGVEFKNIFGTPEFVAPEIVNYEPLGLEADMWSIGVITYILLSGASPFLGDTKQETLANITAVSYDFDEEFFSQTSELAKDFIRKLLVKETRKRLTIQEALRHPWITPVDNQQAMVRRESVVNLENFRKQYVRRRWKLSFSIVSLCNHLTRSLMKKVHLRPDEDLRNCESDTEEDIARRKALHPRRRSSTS
Procedure: as §1

AMPK(A1/B1/G1) = target: T4, AMPK(A1/B1/G1) (Homo sapiens, UniProt Q13131)
T4 construct: purchased Millipore (KinaseProfiler service)
T4 sequence (Q13131 whole entry): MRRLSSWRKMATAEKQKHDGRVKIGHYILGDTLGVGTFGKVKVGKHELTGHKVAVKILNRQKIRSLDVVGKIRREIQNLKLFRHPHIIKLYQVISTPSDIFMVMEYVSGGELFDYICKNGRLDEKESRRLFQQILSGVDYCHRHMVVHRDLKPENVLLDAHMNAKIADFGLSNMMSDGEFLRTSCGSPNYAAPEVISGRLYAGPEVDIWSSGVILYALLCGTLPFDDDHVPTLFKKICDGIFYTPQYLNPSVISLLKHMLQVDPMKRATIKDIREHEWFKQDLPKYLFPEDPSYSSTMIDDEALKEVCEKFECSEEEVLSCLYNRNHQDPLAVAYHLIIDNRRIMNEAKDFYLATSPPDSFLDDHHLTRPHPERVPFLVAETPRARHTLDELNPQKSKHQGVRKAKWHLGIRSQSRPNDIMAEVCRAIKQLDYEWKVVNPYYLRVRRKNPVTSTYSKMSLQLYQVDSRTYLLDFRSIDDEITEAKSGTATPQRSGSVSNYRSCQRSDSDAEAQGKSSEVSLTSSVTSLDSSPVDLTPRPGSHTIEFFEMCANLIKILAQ
T4 sequence (Q9Y478 whole entry partner): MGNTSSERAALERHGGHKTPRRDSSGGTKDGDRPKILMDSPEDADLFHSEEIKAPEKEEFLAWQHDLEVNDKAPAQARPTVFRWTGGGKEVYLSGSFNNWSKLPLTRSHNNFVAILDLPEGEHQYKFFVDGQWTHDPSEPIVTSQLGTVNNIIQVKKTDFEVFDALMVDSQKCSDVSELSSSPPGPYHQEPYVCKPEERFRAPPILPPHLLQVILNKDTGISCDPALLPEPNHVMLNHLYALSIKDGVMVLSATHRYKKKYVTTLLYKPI
T4 sequence (P54619 whole entry partner): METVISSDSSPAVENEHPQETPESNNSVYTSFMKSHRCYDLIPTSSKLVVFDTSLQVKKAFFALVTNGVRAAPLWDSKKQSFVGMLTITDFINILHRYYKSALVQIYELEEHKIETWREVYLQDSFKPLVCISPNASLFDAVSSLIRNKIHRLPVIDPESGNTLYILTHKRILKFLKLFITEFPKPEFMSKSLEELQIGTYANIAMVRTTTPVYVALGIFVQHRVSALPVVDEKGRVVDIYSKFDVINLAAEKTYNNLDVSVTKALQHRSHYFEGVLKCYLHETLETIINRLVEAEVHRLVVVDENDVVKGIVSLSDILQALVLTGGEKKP
Procedure: as §1

MuSK = target: T5, MuSK (Homo sapiens, UniProt O15146)
T5 construct: purchased Millipore, Inc. (KinaseProfiler service)
Procedure: as §1

PDGFRbeta = target: T6, PDGFRbeta (Homo sapiens, UniProt P09619)
T6 construct: purchased Millipore, Inc. (KinaseProfiler service)
Procedure: as §1

ARK5 = target: T7, ARK5 (Homo sapiens, UniProt O60285)
T7 construct: purchased Millipore (KinaseProfiler service)
Procedure: as §1

IGF-1R = target: T8, IGF-1R (Homo sapiens, UniProt P08069)
T8 construct: purchased Millipore, Inc. (KinaseProfiler service)
T8 sequence (P08069 31-1367): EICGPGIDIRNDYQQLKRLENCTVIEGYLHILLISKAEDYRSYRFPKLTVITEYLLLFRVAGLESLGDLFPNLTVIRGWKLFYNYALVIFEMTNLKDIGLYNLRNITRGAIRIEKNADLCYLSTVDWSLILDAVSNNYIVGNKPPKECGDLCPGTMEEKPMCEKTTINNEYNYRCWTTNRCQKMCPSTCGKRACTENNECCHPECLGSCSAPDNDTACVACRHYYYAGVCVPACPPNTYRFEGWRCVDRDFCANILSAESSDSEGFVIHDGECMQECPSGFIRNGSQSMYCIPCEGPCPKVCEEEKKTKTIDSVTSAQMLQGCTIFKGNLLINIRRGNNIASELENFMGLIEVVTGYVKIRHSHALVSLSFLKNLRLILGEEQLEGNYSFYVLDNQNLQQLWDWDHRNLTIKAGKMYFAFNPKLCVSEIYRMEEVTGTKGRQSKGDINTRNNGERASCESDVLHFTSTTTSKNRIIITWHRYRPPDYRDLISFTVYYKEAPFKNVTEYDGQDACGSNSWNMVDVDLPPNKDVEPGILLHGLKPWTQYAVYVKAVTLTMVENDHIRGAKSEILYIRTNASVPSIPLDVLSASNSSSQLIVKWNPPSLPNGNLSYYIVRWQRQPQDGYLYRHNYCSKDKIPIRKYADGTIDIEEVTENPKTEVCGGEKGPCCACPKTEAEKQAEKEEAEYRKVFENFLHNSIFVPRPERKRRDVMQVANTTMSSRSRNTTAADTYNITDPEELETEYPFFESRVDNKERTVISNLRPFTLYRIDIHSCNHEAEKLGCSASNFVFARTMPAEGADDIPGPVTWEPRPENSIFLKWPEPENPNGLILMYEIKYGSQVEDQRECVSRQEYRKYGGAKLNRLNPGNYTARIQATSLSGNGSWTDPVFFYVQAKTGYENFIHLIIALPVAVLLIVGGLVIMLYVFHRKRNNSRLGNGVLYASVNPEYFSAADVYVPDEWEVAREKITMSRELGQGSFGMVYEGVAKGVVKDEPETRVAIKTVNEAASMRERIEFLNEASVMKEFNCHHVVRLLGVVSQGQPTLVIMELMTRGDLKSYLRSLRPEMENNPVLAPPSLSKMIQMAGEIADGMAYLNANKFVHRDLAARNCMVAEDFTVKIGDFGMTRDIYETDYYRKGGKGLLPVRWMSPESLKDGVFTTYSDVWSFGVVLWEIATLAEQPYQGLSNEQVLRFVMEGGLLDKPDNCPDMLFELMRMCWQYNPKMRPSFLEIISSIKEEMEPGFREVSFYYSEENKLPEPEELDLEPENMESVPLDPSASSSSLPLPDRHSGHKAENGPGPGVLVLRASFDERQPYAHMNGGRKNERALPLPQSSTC
Procedure: as §1

IKKbeta = target: T9, IKKbeta (Homo sapiens, UniProt O14920)
T9 construct: purchased Millipore, Inc. (KinaseProfiler service)
Procedure: as §1

EphA7 = target: T10, EphA7 (Rattus norvegicus, UniProt P54759)
T10 construct: purchased Millipore, Inc. (KinaseProfiler service)
Procedure: as §1

EphA5 = target: T11, EphA5 (Homo sapiens, UniProt P54756)
T11 construct: purchased Millipore, Inc. (KinaseProfiler service)
Procedure: as §1

HIPK3 = target: T12, HIPK3 (Homo sapiens, UniProt Q9H422)
T12 construct: purchased Millipore, Inc. (KinaseProfiler service)
Procedure: as §1

MELK = target: T13, MELK (Homo sapiens, UniProt Q14680)
T13 construct: purchased Millipore, Inc. (KinaseProfiler service)
Procedure: as §1

MLK1 = target: T14, MLK1 (Homo sapiens, UniProt P80192)
T14 construct: purchased Millipore, Inc. (KinaseProfiler service)
Procedure: as §1

MSK2 = target: T15, MSK2 (Homo sapiens, UniProt O75676)
T15 construct: purchased Millipore, Inc. (KinaseProfiler service)
Procedure: as §1

ERK2 = target: T16, ERK2 (Homo sapiens, UniProt P28482)
T16 construct: purchased Millipore, Inc. (KinaseProfiler service)
T16 sequence (P28482 whole entry): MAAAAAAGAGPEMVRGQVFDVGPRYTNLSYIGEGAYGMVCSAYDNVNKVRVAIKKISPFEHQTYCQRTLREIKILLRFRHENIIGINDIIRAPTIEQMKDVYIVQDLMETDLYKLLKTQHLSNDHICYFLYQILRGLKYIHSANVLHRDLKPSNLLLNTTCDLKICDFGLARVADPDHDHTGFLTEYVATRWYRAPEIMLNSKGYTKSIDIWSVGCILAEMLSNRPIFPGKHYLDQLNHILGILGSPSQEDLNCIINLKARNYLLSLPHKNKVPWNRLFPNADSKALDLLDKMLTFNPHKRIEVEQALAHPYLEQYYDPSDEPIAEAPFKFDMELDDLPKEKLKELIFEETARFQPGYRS
Procedure: as §1

TNK2 = target: T17, TNK2 (Homo sapiens, UniProt Q07912)
T17 construct: purchased Millipore, Inc. (KinaseProfiler service)
Procedure: as §1

Rsk1 = target: T18, Rsk1 (Homo sapiens, UniProt Q15418)
T18 construct: purchased Millipore, Inc. (KinaseProfiler service)
Procedure: as §1

EphA2 = target: T19, EphA2 (Homo sapiens, UniProt P29317)
T19 construct: purchased Millipore, Inc. (KinaseProfiler service)
Procedure: as §1

KDR = target: T20, KDR (Homo sapiens, UniProt P35968)
T20 construct: purchased Millipore, Inc. (KinaseProfiler service)
Procedure: as §1

TSSK1 = target: T21, TSSK1 (Homo sapiens, UniProt Q9BXA7)
T21 construct: purchased Millipore, Inc. (KinaseProfiler service)
Procedure: as §1

EphB2 = target: T22, EphB2 (Homo sapiens, UniProt P29323)
T22 construct: purchased Millipore, Inc. (KinaseProfiler service)
T22 sequence (P29323 19-1055): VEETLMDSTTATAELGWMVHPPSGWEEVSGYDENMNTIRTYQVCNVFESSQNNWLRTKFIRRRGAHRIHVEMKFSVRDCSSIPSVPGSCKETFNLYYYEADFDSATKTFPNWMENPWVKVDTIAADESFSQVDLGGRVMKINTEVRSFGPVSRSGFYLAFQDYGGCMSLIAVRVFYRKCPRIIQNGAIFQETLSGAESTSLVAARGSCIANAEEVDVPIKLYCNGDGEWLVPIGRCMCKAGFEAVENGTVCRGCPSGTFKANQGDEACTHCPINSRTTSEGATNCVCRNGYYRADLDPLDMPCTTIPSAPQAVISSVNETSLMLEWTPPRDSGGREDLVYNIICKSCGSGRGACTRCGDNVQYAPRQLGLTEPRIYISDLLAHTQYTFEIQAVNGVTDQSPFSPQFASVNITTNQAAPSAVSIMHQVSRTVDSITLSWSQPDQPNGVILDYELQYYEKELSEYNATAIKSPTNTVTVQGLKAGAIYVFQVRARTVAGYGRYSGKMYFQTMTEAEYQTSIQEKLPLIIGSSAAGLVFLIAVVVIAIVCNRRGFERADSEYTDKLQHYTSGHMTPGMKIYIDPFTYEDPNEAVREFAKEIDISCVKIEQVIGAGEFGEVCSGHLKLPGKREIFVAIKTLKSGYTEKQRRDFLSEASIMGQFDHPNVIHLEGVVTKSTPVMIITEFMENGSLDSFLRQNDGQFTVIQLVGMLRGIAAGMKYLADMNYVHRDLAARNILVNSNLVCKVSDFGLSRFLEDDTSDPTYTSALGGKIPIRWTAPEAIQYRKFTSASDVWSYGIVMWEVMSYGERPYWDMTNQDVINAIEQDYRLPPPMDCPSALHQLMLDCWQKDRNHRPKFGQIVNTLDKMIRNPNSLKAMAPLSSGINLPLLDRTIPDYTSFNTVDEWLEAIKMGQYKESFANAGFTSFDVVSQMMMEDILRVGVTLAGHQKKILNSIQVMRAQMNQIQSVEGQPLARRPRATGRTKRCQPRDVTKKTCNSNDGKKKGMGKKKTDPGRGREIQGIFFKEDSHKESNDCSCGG
Procedure: as §1

SGK3 = target: T23, SGK3 (Homo sapiens, UniProt Q96BR1)
T23 construct: purchased Millipore, Inc. (KinaseProfiler service)
Procedure: as §1

CK1gamma2 = target: T24, CK1gamma2 (Homo sapiens, UniProt P78368)
T24 construct: purchased Millipore, Inc. (KinaseProfiler service)
Procedure: as §1

TAO1 = target: T25, TAO1 (Homo sapiens, UniProt Q7L7X3)
T25 construct: purchased Millipore, Inc. (KinaseProfiler service)
Procedure: as §1

MRCKbeta = target: T26, MRCKbeta (Homo sapiens, UniProt Q9Y5S2)
T26 construct: purchased Millipore, Inc. (KinaseProfiler service)
Procedure: as §1

IKKalpha = target: T27, IKKalpha (Homo sapiens, UniProt O15111)
T27 construct: purchased Millipore, Inc. (KinaseProfiler service)
T27 sequence (O15111 whole entry): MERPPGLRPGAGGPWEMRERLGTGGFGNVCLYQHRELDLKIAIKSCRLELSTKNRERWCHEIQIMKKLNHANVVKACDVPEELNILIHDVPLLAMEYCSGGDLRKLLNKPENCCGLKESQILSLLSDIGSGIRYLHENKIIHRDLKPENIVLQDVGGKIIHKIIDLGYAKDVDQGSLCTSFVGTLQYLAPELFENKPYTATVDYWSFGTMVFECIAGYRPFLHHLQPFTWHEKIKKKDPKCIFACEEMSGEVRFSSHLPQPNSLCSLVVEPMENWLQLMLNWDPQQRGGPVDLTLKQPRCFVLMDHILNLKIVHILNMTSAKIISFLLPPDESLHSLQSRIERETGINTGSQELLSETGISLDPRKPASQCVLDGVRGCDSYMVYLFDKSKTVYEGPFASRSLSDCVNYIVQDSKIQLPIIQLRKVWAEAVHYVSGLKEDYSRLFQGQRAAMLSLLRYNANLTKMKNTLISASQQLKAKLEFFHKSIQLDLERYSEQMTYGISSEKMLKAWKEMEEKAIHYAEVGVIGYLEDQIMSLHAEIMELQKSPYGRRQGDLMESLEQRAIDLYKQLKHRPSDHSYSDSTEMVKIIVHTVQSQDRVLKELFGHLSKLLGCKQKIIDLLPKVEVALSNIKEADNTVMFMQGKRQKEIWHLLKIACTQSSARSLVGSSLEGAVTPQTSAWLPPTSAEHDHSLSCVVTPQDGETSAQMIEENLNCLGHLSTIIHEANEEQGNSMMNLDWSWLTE
Procedure: as §1

Abl-P = target: T28, Abl-P (Homo sapiens, UniProt P00519)
T28 construct: purchased Millipore (KinaseProfiler service)
Procedure: as §1

PrKX = target: T29, PrKX (Homo sapiens, UniProt P51817)
T29 construct: purchased Millipore, Inc. (KinaseProfiler service)
Procedure: as §1

ROCK-I = target: T30, ROCK-I (Homo sapiens, UniProt Q13464)
T30 construct: purchased Millipore, Inc. (KinaseProfiler service)
Procedure: as §1

BrSK2 = target: T31, BrSK2 (Homo sapiens, UniProt Q8IWQ3)
T31 construct: purchased Millipore (KinaseProfiler service)
Procedure: as §1

JAK2 = target: T32, JAK2 (Homo sapiens, UniProt O60674)
T32 construct: purchased Millipore, Inc. (KinaseProfiler service)
Procedure: as §1

CDK2/cyclinE = target: T33, CDK2/cyclinE (Homo sapiens, UniProt P24941)
T33 construct: purchased Millipore, Inc. (KinaseProfiler service)
Procedure: as §1

CAMK2g = target: T34, CAMK2g (Homo sapiens, UniProt Q13555)
T34 construct: purchased Millipore (KinaseProfiler service)
Procedure: as §1

SGK1 = target: T35, SGK1 (Homo sapiens, UniProt O00141, S422D)
T35 construct: purchased Millipore, Inc. (KinaseProfiler service)
Procedure: as §1

Pim-2 = target: T36, Pim-2 (Homo sapiens, UniProt Q9P1W9)
T36 construct: purchased Millipore, Inc. (KinaseProfiler service)
Procedure: as §1

CDK3/cyclinE = target: T37, CDK3/cyclinE (Homo sapiens, UniProt Q00526)
T37 construct: purchased Millipore, Inc. (KinaseProfiler service)
Procedure: as §1

PAK4 = target: T38, PAK4 (Homo sapiens, UniProt O96013)
T38 construct: purchased Millipore, Inc. (KinaseProfiler service)
Procedure: as §1

Rsk2 = target: T39, Rsk2 (Homo sapiens, UniProt P51812)
T39 construct: purchased Millipore, Inc. (KinaseProfiler service)
Procedure: as §1

TSSK2 = target: T40, TSSK2 (Homo sapiens, UniProt Q96PF2)
T40 construct: purchased Millipore, Inc. (KinaseProfiler service)
Procedure: as §1

ROCK-II = target: T41, ROCK-II (Homo sapiens, UniProt O75116)
T41 construct: purchased Millipore, Inc. (KinaseProfiler service)
Procedure: as §1

Cc1c(-c2cnn(C)c2)nn(-c2ccccc2)c1NC(=O)Nc1sc(C(F)(F)F)nc1-c1ccccc1 [Example 2, 1-(1′,4-dimethyl-1-phenyl-1H,1′H-[3,4′-bipyrazol]-5-yl)-3-(4-phenyl-2-(trifluoromethyl)thiazol-5-yl)urea]
Avg POC (GSK3beta): 127.5 POC | Avg POC (ErbB4): 125 POC | Avg POC (DAPK2): 103.5 POC | Avg POC (AMPK(A1/B1/G1)): 134.5 POC | Avg POC (MuSK): 88 POC | Avg POC (PDGFRbeta): 162 POC | Avg POC (ARK5): 102 POC | Avg POC (IGF-1R): 82.5 POC | Avg POC (IKKbeta): 112 POC | Avg POC (EphA7): 103 POC | Avg POC (EphA5): 118.5 POC | Avg POC (HIPK3): 105.5 POC | Avg POC (MELK): 99 POC | Avg POC (MLK1): 95.5 POC | Avg POC (MSK2): 136 POC | Avg POC (ERK2): 135 POC | Avg POC (TNK2): 142.5 POC | Avg POC (Rsk1): 123.5 POC | Avg POC (EphA2): 127 POC | Avg POC (KDR): 126 POC | Avg POC (TSSK1): 92 POC | Avg POC (EphB2): 119 POC | Avg POC (SGK3): 151 POC | Avg POC (CK1gamma2): 110 POC | Avg POC (TAO1): 103.5 POC | Avg POC (MRCKbeta): 113 POC | Avg POC (IKKalpha): 133 POC | Avg POC (Abl-P): 148 POC | Avg POC (PrKX): 122 POC | Avg POC (ROCK-I): 113 POC | Avg POC (BrSK2): 116.5 POC | Avg POC (JAK2): 147.5 POC | Avg POC (CDK2/cyclinE): 100 POC | Avg POC (CAMK2g): 103 POC | Avg POC (SGK1): 139.5 POC | Avg POC (Pim-2): 142.5 POC | Avg POC (CDK3/cyclinE): 105 POC | Avg POC (PAK4): 103.5 POC | Avg POC (Rsk2): 131 POC | Avg POC (TSSK2): 142.5 POC | Avg POC (ROCK-II): 115.5 POC
